Calls of active or inactive are those of the source.
Tests used:
[1] = target: Cystic fibrosis transmembrane conductance regulator/Golgi-associated PDZ and coiled-coil motif-containing protein (Homo sapiens, UniProt P13569+Q9HD26); experiment: CAL PDZ peptide-binding inhibitors, dose response, biochemical, fluorescence polarization, Cerulean-tagged CAL PDZ, cherry-picks (AID 504773)
[2] = target: T1, ORF 73 (Human herpesvirus 8, UniProt O40947); experiment: inhibitors of C-LANA binding to LBS DNA, dose response, biochemical, fluorescence polarization, cherry-picked samples (AID 504725); parameters: species or system Human gammaherpesvirus 8;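 note: fluorescence polarization of a labeled DNA duplex reporting LANA DNA binding; potency is for inhibitors that block LANA binding to the DNA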
T1 sequence (O40947 whole entry): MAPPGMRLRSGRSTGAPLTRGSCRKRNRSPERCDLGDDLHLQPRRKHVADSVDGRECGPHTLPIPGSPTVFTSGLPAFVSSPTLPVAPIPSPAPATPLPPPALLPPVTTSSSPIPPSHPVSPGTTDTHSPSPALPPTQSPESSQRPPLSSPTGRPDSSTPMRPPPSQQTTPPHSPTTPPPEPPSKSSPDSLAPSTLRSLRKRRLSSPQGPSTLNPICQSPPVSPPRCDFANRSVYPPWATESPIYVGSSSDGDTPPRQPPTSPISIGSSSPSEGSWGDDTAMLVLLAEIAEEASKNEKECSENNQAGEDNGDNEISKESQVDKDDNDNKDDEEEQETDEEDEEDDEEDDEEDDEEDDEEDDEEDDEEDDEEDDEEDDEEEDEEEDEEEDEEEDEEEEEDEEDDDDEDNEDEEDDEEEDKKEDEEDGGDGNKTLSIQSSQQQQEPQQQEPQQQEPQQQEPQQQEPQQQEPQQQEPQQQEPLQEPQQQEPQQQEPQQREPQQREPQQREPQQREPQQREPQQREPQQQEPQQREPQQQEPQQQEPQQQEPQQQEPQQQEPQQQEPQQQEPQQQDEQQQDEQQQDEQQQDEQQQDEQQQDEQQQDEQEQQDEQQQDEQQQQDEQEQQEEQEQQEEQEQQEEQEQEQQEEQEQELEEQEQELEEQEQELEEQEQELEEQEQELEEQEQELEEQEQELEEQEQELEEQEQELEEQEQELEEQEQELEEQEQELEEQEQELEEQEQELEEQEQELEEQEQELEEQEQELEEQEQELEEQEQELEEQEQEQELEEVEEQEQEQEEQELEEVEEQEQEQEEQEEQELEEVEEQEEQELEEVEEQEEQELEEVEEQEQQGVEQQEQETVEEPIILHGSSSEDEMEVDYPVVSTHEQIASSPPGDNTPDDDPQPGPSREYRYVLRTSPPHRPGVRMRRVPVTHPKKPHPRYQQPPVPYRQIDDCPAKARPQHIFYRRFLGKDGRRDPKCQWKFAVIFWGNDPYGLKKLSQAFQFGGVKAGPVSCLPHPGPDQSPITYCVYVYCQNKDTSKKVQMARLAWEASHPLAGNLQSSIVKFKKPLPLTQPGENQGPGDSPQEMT

[3] = target: Eukaryotic translation initiation factor 4E (Mus musculus, UniProt P63073); experiment: eIF4E–eIF4G protein interaction inhibitors, dose response, biochemical, TR-FRET (AID 855); assay type: functional;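 note: potency for disrupting eIF4E binding to eIF4GI seen as loss of FRET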
[4] = test system: HeLa; experiment: HeLa cell cytotoxicity, dose response, cytotoxicity control, 24 h, cherry-picked samples (AID 504726); assay type: functional, cell-based; conditions: Homo sapiens;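 note: potency for cytotoxicity as loss of luminescence signal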
[5] = target: Nonstructural protein 1 (Influenza A virus, UniProt Q194T2); assay type: functional, Influenza A virus (A/California/07/2009(H1N1))
[6] = target: T2, Short transient receptor potential channel 4 (Mus musculus, UniProt Q9QUQ5); experiment: TRPC4 positive allosteric modulators, dose response, cell-based, HEK293 TRPC4/mu-opioid, Fluo-4 calcium, EC20 DAMGO (AID 434941); assay type: functional
T2 sequence (Q9QUQ5 whole entry): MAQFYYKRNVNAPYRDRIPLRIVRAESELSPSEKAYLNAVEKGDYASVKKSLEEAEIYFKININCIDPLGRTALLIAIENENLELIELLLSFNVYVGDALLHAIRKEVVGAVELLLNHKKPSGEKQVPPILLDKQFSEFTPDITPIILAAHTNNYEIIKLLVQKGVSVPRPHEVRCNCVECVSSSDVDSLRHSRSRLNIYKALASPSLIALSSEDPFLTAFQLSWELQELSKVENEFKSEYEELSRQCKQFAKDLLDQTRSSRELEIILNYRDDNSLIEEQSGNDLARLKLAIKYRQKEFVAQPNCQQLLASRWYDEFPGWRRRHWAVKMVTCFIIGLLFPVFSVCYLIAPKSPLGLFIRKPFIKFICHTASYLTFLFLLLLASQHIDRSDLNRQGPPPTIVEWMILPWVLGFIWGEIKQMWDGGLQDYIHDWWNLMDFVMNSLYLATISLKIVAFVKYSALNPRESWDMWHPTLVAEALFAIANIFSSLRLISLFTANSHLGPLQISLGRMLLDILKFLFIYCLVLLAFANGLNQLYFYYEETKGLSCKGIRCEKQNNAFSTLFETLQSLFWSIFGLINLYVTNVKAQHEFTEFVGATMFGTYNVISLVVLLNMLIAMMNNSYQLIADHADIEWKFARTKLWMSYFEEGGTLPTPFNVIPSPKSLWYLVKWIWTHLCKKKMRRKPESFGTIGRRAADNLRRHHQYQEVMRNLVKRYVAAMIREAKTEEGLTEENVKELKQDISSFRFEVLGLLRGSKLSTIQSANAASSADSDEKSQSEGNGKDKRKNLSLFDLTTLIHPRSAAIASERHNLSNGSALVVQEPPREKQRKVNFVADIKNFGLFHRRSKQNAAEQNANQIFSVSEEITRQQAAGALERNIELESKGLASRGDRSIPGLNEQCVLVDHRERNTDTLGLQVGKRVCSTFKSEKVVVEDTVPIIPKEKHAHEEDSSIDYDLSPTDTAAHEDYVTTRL

[7] = test system: Saccharomyces cerevisiae; experiment: NALP1 inhibitor project selectivity study, Caspase-1/ASC signal blockade IC50 in S. cerevisiae (AID 488863); assay type: functional, organism-based
[8] = target: 5-hydroxytryptamine receptor 2A (Mus musculus, UniProt P35363); assay type: functional, cell-based;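 note: CHO-K1 cells with tagged receptor and beta-arrestin; agonist potency measured as compound-induced activation of the receptor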
[9] = target: NACHT, LRR and PYD domains-containing protein 1 (Homo sapiens, UniProt Q9C000); experiment: NALP1 inhibitors in yeast, dose response, luminescent (AID 488860); assay type: functional
[10] = target: Mu-type opioid receptor (Homo sapiens, UniProt P35372); assay type: functional, cell-based;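 note: U2OS cells with beta-arrestin recruitment to OPRM1 by beta-gal complementation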
[11] = HEp-2 cell cytotoxicity, dose response, cytotoxicity control for RSV inhibitor project, HTS (AID 2410); assay type: functional; conditions: human respiratory syncytial virus

Sequence of NACHT, LRR and PYD domains-containing protein 1 (Q9C000 1-1212 limits assumed): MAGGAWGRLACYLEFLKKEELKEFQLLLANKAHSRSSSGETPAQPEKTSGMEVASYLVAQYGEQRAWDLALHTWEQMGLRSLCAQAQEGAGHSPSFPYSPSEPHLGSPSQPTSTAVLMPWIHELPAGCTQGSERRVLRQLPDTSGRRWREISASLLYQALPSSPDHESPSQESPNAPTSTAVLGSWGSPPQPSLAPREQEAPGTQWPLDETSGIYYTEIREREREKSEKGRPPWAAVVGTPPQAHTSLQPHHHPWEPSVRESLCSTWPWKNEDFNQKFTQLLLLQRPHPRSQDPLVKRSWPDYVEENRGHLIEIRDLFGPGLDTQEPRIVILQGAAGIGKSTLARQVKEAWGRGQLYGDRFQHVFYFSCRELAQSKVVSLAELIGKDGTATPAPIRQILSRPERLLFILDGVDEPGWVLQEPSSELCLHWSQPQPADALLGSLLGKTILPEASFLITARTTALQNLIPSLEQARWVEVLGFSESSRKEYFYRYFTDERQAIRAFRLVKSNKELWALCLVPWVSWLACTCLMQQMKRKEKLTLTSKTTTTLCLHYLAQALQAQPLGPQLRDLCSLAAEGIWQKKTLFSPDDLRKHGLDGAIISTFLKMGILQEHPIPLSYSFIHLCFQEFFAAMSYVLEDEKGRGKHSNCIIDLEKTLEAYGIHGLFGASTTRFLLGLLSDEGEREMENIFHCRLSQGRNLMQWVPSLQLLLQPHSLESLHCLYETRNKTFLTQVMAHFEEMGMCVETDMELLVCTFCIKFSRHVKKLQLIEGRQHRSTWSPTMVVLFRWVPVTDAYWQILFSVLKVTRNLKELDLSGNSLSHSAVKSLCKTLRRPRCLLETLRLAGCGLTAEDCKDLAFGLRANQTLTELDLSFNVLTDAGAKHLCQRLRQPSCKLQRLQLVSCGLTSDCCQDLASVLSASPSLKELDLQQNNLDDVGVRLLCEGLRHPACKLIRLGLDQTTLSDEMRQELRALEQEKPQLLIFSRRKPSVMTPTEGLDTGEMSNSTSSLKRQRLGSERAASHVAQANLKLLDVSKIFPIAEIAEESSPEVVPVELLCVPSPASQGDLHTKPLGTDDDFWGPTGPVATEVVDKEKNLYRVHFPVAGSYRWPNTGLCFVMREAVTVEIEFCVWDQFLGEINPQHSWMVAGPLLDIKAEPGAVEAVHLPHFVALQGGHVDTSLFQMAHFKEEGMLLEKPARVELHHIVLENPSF
Sequence of NACHT, LRR and PYD domains-containing protein 1 (Q9C000 1213-1473 limits assumed): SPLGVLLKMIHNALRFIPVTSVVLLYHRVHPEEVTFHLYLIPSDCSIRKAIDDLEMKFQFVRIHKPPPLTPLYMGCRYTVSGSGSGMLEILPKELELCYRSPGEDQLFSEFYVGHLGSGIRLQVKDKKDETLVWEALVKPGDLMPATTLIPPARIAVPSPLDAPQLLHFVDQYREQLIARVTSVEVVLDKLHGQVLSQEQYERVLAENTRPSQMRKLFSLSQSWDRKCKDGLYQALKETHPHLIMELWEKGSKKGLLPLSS
Sequence of 5-hydroxytryptamine receptor 2A (P35363 whole entry, the tested form may be a part): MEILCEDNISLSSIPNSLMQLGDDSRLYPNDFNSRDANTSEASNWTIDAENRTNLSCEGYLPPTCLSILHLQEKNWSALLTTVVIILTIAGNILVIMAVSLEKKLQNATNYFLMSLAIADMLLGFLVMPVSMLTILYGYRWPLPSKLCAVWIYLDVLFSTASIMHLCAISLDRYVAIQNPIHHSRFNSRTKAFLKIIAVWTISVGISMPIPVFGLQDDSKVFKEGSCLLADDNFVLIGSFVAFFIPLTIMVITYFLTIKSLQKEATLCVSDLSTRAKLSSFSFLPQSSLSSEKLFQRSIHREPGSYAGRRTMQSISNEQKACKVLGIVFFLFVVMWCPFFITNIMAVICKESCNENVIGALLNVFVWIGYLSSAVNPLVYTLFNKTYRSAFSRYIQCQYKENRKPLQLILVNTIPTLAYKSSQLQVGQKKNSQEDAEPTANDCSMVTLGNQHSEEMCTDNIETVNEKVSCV
Sequence of Mu-type opioid receptor (P35372 whole entry): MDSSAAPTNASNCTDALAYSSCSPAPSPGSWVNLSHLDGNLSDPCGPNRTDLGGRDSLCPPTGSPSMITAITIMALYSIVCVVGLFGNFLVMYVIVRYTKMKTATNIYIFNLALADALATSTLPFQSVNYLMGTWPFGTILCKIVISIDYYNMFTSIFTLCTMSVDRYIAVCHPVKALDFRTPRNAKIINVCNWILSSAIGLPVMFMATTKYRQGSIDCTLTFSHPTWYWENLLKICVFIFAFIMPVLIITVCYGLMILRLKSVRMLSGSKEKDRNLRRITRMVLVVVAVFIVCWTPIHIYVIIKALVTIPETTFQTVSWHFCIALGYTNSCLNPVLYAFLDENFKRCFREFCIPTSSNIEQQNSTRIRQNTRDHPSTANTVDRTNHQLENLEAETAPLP
Sequence of Eukaryotic translation initiation factor 4E (P63073 whole entry): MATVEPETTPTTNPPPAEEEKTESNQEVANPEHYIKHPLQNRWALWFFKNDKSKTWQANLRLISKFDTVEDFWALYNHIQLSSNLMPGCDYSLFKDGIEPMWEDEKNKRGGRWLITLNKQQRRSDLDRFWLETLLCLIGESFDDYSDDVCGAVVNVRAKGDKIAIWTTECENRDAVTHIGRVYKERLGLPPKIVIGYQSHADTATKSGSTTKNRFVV
Sequence of Nonstructural protein 1 (Q194T2 whole entry): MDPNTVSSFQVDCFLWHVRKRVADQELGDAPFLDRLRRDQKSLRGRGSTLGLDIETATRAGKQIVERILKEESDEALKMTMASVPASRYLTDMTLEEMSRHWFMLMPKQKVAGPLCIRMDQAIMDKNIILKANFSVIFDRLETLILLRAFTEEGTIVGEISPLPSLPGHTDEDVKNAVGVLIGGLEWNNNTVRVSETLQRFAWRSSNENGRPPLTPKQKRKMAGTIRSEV
Sequence of Cystic fibrosis transmembrane conductance regulator/Golgi-associated PDZ and coiled-coil motif-containing protein (P13569 whole entry, other chains not shown): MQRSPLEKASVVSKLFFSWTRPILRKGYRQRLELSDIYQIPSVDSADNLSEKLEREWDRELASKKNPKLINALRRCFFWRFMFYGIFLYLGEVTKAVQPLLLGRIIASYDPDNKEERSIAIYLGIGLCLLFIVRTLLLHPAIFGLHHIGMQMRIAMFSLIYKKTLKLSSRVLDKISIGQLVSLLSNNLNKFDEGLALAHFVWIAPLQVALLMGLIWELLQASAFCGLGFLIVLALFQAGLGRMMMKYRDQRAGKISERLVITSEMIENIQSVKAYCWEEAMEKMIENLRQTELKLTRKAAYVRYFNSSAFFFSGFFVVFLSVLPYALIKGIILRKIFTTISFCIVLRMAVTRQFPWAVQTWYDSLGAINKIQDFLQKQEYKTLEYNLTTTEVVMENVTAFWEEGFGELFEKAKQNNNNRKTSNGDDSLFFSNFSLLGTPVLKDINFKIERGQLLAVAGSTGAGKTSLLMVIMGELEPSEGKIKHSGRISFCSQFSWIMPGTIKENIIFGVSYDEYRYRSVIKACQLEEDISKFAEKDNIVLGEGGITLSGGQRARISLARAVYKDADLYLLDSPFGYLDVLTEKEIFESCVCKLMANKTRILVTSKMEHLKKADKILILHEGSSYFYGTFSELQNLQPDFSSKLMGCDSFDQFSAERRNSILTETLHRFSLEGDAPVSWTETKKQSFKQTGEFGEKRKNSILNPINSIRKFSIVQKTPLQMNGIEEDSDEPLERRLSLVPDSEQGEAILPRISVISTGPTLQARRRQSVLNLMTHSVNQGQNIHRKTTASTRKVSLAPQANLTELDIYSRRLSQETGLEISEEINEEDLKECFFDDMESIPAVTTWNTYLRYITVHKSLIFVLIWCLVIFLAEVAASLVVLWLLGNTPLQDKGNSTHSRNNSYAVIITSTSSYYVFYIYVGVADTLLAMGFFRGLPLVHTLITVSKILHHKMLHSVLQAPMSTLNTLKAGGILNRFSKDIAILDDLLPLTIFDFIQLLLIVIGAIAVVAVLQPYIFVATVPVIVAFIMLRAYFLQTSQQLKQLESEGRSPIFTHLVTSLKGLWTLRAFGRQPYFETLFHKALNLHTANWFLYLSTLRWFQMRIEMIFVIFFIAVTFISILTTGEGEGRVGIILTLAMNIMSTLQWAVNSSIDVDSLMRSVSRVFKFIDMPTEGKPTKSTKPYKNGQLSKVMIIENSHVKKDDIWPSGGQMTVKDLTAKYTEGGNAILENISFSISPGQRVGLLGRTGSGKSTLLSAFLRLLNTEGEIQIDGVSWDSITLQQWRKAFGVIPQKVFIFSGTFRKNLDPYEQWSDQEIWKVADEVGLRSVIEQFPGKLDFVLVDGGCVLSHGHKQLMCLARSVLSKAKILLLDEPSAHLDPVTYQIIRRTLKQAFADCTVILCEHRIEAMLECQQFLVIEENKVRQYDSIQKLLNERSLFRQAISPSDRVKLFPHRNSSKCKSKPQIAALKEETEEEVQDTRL

Question: What does the source list for COc1ccc(OC)c(-c2c3cc(O)c(=O)cc-3oc3cc(O)c(O)cc23)c1?
Answer: AC50 [1]: 13.3 µM (active); AC50 [2]: 1.56 µM (active); IC50 [3]: 15.7 µM (active); AC50 [4]: 135 µM (active); IC50 [5]: 20.3 µM (active)

Question: Which EC50 [6] does the source give for c1ccc(-c2nc(N3CCNCC3)nc3ccccc23)cc1 here?
Answer: 0.3 µM (active)

Question: Which IC50 [7] does the source give for COc1ccc(C)cc1NC(=O)c1ccc(CN2CCN(c3ccccc3)CC2)cc1 here?
Answer: > 100 µM (inactive)

Question: And the EC50 [8]?
Answer: 76.1 µM (inactive)

Question: What about the IC50 [9] of the same compound?
Answer: > 100 µM (inactive)

Question: What about the EC50 [10] of the same compound?
Answer: 92.5 µM (inactive)

Question: And the CC50 [11]?
Answer: 21.4 µM (active)

Question: For CCOC(=O)C1CCCN(Cc2ccc(OCC)cc2)C1 (stereo not drawn), which IC50 [7] is on record?
Answer: > 100 µM (inactive)

Question: And the IC50 [9]?
Answer: > 100 µM (inactive)

Source: ChEMBL document CHEMBL1201862, “PubChem BioAssay data set” (2004)
